Laboratory results published in patent publication US20170209499A1, “Propolis and Extracts Thereof for the Treatment of Skin Cancers and Improvement of Skin Health” (Manuka Health New Zealand Limited, priority 2014, published 2017).

Tests used:
[1] = system: human epidermoid cancer cell line A-431; experiment: MTT cell proliferation assay, human epidermoid (squamous) carcinoma cell line A-431; type: cell-based; conditions: for Mean OD: MTT Optical Density at 570 nm
Experimental: (§1) The three human skin cancer cell lines were: • 1) Human Melanoma cell line (A-2058). • 2) Human Epidermoid (Squamous) Carcinoma cell line (A-431). • 3) Human Basal Cell Carcinoma cell line (TE 354.T).
(§2) The cell lines were revived from cryostorage and cultured in the presence of the test and reference samples. An MIT assay was then performed on the cultures to determine the effect of the samples on the cell viability and proliferation. The percentage standard error of the mean was assessed and extreme outliers were removed if the SEM%>15. Preliminary statistical significance was assessed with an independent Student t-test at α<0.05 (with and without outliers). The methodology was based on the procedures reported by: • Ahn, N G, Campbell J S (1993). […] Proc Natl Acad Sci. 90: 5143-5147. • Galan-Cobo, A et al (2014). Functional inhibition of aquaporin-3 with a gold-based compound induces blockage of cell proliferation. J Cellul. Physiol. 229: 1787-1801. • Roomi, M W, Kalinovsky, J et al (2013) Effect of a nutrient mixture on matrix metalloproteinase-9 dimers in various human cancer cell lines. Inter 3 Oncol. 44: 936-942. • Huang, H C, Lin, M K et al (2013). Cardenolides and bufadienolide glycosides from Kalanchoe tubiflora and evaluation of cytotoxicity. Planta Medica. 79: 1362-1369. • Tilli, C M L J, Stavast-Kooy, A J W et al (2003). The garlic-derived organosulfur component ajoene decreases basal cell carcinoma tumor size by inducing apoptosis. Arch Dermatol Res. 295: 117-123.
(§3) • 1. Human melanoma cell line (A-2058, ATCC CRL11147) was obtained from ATCC, Bethesda, Md., USA. • 2. Human squamous (epidermoid) carcinoma cell line (A-431, ATCC CRL1555) was obtained from ATCC, Bethesda, Md. USA. • 3. Human basal cell carcinoma cell line (TE 354.T, ATCC CRL7762) was obtained from ATCC, Bethesda, Md., USA. • 4. Dulbecco's Modified Eagle's Medium (DMEM) was obtained from GIBCO (12100-038). 10% Foetal Bovine Serum (FBS), 100 U/ml Penicillin and […] Streptomycin were added before use. • 5. Penicillin-streptomycin solution, stored at −20° C. consisting of 10000 units/ml penicillin and 10 mg/ml streptomycin in 0.9% NaCl was obtained from Sigma (#P-0781). • 6. Trypsin-EDTA solution consisting of 0.25% Trypsin/EDTA was obtained from Invitrogen (#15400054). • 7. Phosphate buffered saline (PBS) was prepared in-house. • 8. Hanks Balanced Salt Solution (HBSS), stored at 4° C. was obtained from GIBCO (#14185-052). • 9. Foetal Bovine Serum (FBS) stored at −20° C. was obtained from GIBCO (#10091-148). • 10. MTT Reagent, 100 mg/vial, was obtained from Sigma (M-2128) and then dissolved in PBS at 10 mg/ml and stored at −20° C. A 5 mg/ml MTT solution was prepared in PBS and stored at 4° C. as the working solution. • 11. MU lysis buffer: 10% sodium dodecyl sulphate (SDS)/45% Dimethyl Formamide was prepared by dissolving 20 g SDS in 100 ml of double-distilled water (DDW), and then adding 90 ml of Dimethyl Formamide to the solution. The pH was adjusted to 4.7 by glacial acetic acid, and DDW added up to a final volume of 200 ml. • 12. 5-Fluorouracil (5-FU) was supplied by Sigma (F-6627). Three working solutions were prepared at 19.5 μg/ml. 6.5 μg/ml and 1.95 μg/ml dissolved in 15% Ethanol/HBSS. Final concentrations were 1.95 μg/ml (15 μM), 0.65 μg/ml (5 μM) and 0.195 μg/ml (1.5 μM).
(§4) • 1. Each of the cell lines was revived from cryostorage. • 2. Following initial propagation using the media described above (Characterisation of Test System, and Medium Preparation), the cell culture was subcultured using trypsin-EDTA. The media was removed and 5ml of the trypsin-EDTA solution added and incubated at 37° C. for 5 min or until all the cells had detached. The trypsin was neutralised by the addition of an equal volume of the relevant medium and centrifugation of the suspension at 300 g (1200 rpm) for 5 min at 4° C. • 3. […]

[2] = system: human basal carcinoma cell line TE 354.T; experiment: MTT cell proliferation assay, human basal cell carcinoma cell line TE 354.T; type: cell-based; conditions: for Mean OD: MTT Optical Density at 570 nm
Experimental: as §1, §2, §3, §4

O=c1[nH]cc(F)c(=O)[nH]1 [5-fluorouracil, reference compound]
% inhibition ([1]; A-431, 0.195 μg/ml, 24 hr incubation, vs cells only): weak and statistically insignificant inhibitor | Mean OD ([1]; A-431, 0.195 μg/ml): 0.2364 | % inhibition ([1]; A-431, 0.65 μg/ml, 24 hr incubation, vs cells only): weak and statistically insignificant inhibitor | Mean OD ([1]; A-431, 0.65 μg/ml): 0.2416 | % inhibition ([1]; A-431, 1.95 μg/ml, 24 hr incubation, vs cells only): weak and statistically insignificant inhibitor | Mean OD ([1]; A-431, 1.95 μg/ml): 0.2561 | inhibition at 0.195 µg/mL ([1]; Homo sapiens, A-431, 0.195 μg/ml, 24 hr incubation, vs cells only): 9.79% | inhibition at 0.65 µg/mL ([1]; Homo sapiens, A-431, 0.65 μg/ml, 24 hr incubation, vs cells only): 7.8% | inhibition at 1.95 µg/mL ([1]; Homo sapiens, A-431, 1.95 μg/ml, 24 hr incubation, vs cells only): 2.26% | Mean OD ([2]; 0.195 μg/ml): 0.2548 | Mean OD ([2]; 0.65 μg/ml): 0.2656 | Mean OD ([2]; 1.95 μg/ml): 0.2553 | inhibition at 0.195 µg/mL ([2]; Homo sapiens, 0.195 μg/ml, 24 hr incubation, vs cells only): 5.49% | inhibition at 0.65 µg/mL ([2]; Homo sapiens, 0.65 μg/ml, 24 hr incubation, vs cells only): 1.49% | inhibition at 1.95 µg/mL ([2]; Homo sapiens, 1.95 μg/ml, 24 hr incubation, vs cells only): 5.31%
